Data from PubChem BioAssay (NCI).
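A five-concentration, 48-hour dose response in 96-well plates underlies each endpoint, interpolated linearly between surrounding concentrations. Definition used: TGI = concentration required for complete inhibition of growth.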

Columns and labels:
Experiment in all cases: inhibition of tumour cell growth, NCI panel, 48 h
[1] = test system: 786-0 renal
[2] = test system: A498 renal
[3] = test system: A549 NSCLC
[4] = test system: ACHN renal
[5] = test system: CAKI-1 renal
[6] = test system: CCRF-CEM leukemia
[7] = test system: COLO 205 colon
[8] = test system: DLD-1 colon
[9] = test system: DMS 114 small cell lung
[10] = test system: DMS 273 small cell lung
[11] = test system: EKVX NSCLC
[12] = test system: HCC-2998 colon
[13] = test system: HCT-116 colon
[14] = test system: HCT-15 colon
[15] = test system: HL-60(TB) leukemia
[16] = test system: HOP-18 NSCLC
[17] = test system: HOP-62 NSCLC
[18] = test system: IGROV1 ovarian
[19] = test system: K-562 leukemia
[20] = test system: KM12 colon
[21] = test system: KM20L2 colon
[22] = test system: LXFL 529 NSCLC
[23] = test system: M14 melanoma
[24] = test system: M19-MEL melanoma
[25] = test system: MALME-3M melanoma
[26] = test system: MOLT-4 leukemia
[27] = test system: NCI-H226 lung
[28] = test system: NCI-H460 lung
[29] = test system: NCI-H522 lung
[30] = test system: OVCAR-3 ovarian
[31] = test system: OVCAR-4 ovarian
[32] = test system: RPMI-8226 leukemia
[33] = test system: RXF 393 renal
[34] = test system: RXF-631 renal
[35] = test system: SF-268 CNS
[36] = test system: SF-539 CNS
[37] = test system: SK-MEL-2 melanoma
[38] = test system: SK-MEL-28 melanoma
[39] = test system: SK-MEL-5 melanoma
[40] = test system: SK-OV-3 ovarian
[41] = test system: SN12C renal
[42] = test system: SNB-19 CNS
[43] = test system: SNB-75 CNS
[44] = test system: SNB-78 CNS
[45] = test system: SR leukemia
[46] = test system: SW-620 colon
[47] = test system: TK-10 renal
[48] = test system: U251 CNS
[49] = test system: UACC-257 melanoma
[50] = test system: UACC-62 melanoma
[51] = test system: UO-31 renal
[52] = test system: HOP-92 NSCLC
[53] = test system: HT29 colon
[54] = test system: LOX IMVI melanoma
[55] = test system: NCI-H23 lung
[56] = test system: OVCAR-5 ovarian
[57] = test system: OVCAR-8 ovarian
[58] = test system: SF-295 CNS
[59] = test system: XF 498 CNS

Measured: TGI

CNC(=O)C1CCc2nnc(-c3ccccc3)n21 (centres undefined)
not listed: [52] | [53] | [54] | [55] | [56] | [57] | [58] | [59]
> 100 µM: all other assays above

NC12CC3CC(C1)CC(C(=O)O)(C3)C2
not listed: [7] | [25] | [27] | [33] | [34] | [37]
> 100 µM: all other assays above
